Reference: patent US9862717B2 (Merck Patent GmbH, priority 2014, dated 2018)

molecular target: T1, CDK8/CycC (Homo sapiens, UniProt P49336); assay: FRET based Lanthascreen binding competition assay for CDK8 inhibitory activity; settings: CDK8 co-expressed with CycC; class symbols; read-out: IC50
T1 construct: purchased Invitrogen PV4402
From the text: Biochemical Assay for CDK8 Inhibitory Activity FRET based Lanthascreen binding competition assay: A dye-labeled ATP competitive probe served as a FRET acceptor upon binding to CDK8 labeled with a strepavidin -Eu-chelate (via a biotinylated anti His antibody). The result was a fluorescence signal at 647 nm. In case this probe was competed by an inhibitor, such a signal cannot be generated any more. The CDK8 used for this assay was a protein co-expressed with CycC. The assay procedure for an assay in a 1536 well plate was performed according to the following: 2 μL CDK8/biotin-anti-His Ab/SA-Eu mix in Assay buffer were pipetted into the wells of a micro plate. 1 μL compound in 20 mM Hepes buffer/5% DMSO was added. The plate was shaken for 30 sec and incubated for 20 min at RT. 2 μL Alexa647-probe in assay buffer were added. The plate was shaken for 30 sec again and incubated for 60 min at RT in the dark. Then the plate was read out on a Perkin Elmer Envision (mode LANCE/TRF, excitation 340 nm emission 650 nm). […] The readouts were fitted to IC50 curves using Genedata Condoseo.

T1 sequence (P49336 whole entry): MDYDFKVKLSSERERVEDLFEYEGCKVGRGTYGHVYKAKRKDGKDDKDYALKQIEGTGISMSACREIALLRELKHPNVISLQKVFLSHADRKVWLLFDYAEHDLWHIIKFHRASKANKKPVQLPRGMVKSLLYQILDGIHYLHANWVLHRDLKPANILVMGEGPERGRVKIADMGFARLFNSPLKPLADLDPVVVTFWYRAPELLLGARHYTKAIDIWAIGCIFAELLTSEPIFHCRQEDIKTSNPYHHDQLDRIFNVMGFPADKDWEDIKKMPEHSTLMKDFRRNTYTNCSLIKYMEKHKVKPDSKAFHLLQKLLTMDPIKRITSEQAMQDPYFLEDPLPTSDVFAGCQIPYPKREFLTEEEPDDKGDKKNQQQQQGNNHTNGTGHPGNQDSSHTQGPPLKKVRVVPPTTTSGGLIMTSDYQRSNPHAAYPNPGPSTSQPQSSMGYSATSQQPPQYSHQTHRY
T1 sequence (P24863 whole entry partner): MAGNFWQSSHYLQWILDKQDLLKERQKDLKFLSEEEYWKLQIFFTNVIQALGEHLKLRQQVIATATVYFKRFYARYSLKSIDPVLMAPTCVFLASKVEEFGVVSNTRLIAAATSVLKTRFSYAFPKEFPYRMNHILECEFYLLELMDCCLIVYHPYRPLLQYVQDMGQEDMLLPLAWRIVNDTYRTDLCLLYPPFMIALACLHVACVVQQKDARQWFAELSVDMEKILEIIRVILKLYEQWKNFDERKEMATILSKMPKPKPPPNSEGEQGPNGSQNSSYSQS

| SMILES | IC50 [µM] |
| --- | --- |
| CC(C)Cc1n[nH]c2ccc(C(=O)N3CCC[C@H]3c3ccc(Cl)cc3)cc12 [compound 31] | < 0.01 |
| Cc1n[nH]c2ncc(C(=O)N3CCCC3c3ccncc3)cc12 (centres unmarked) [compound 32, (3-Methyl-1H-pyrazolo[3,4-b]pyridin-5-yl)-(2-pyridin-4-yl-pyrrolidin-1-yl)-methanone] | 0.1 to 1 |
| CSc1ccccc1[C@@H]1CCCN1C(=O)c1cnc2[nH]nc(C)c2c1 [compound 33, (3-Methyl-1H-pyrazolo[3,4-b]pyridin-5-yl)-[(S)-2-(2-methylsulfanyl-phenyl)-pyrrolidin-1-yl]-methanone] | 0.1 to 1 |
| CSc1ccccc1[C@H]1CCCN1C(=O)c1cnc2[nH]nc(C)c2c1 [compound 34, (3-Methyl-1H-pyrazolo[3,4-b]pyridin-5-yl)-[(R)-2-(2-methylsulfanyl-phenyl)-pyrrolidin-1-yl]-methanone] | 0.1 to 1 |
| Cc1n[nH]c2ncc(C(=O)N3CCC[C@H]3c3ccccc3Cl)cc12 [compound 36, [(S)-2-(2-Chloro-phenyl)-pyrrolidin-1-yl]-(3-methyl-1H-pyrazolo[3,4-b]pyridin-5-yl)-methanone] | 0.01 to 0.1 |
| Cc1n[nH]c2ncc(C(=O)N3CCC[C@@H]3c3ccccc3Cl)cc12 [compound 37, [(R)-2-(2-Chloro-phenyl)-pyrrolidin-1-yl]-(3-methyl-1H-pyrazolo[3,4-b]pyridin-5-yl)-methanone] | 0.1 to 1 |
| Cc1n[nH]c2ncc(C(=O)N3CCC[C@@H]3c3ccccc3)cc12 [compound 38, (3-Methyl-1H-pyrazolo[3,4-b]pyridin-5-yl)-((R)-2-phenyl-pyrrolidin-1-yl)-methanone] | 0.1 to 1 |
| Cc1n[nH]c2ncc(C(=O)N3CCC[C@H]3c3ccccc3)cc12 [compound 39, (3-Methyl-1H-pyrazolo[3,4-b]pyridin-5-yl)-((S)-2-phenyl-pyrrolidin-1-yl)-methanone] | < 0.01 |
| Cc1n[nH]c2ncc(C(=O)N3CC[C@H](c4ccccc4)C3)cc12 [compound 40, (3-Methyl-1H-pyrazolo[3,4-b]pyridin-5-yl)-((R)-3-phenyl-pyrrolidin-1-yl)-methanone] | 0.1 to 1 |
| Cc1n[nH]c2ncc(C(=O)N3CC[C@@H](c4ccccc4)C3)cc12 [compound 41, (3-Methyl-1H-pyrazolo[3,4-b]pyridin-5-yl)-((S)-3-phenyl-pyrrolidin-1-yl)-methanone] | 0.01 to 0.1 |
| Cc1n[nH]c2ncc(C(=O)N3CCC[C@H]3c3ccc(F)cc3)cc12 [compound 43, [(S)-2-(4-Fluoro-phenyl)-pyrrolidin-1-yl]-(3-methyl-1H-pyrazolo[3,4-b]pyridin-5-yl)-methanone] | < 0.01 |
| Cc1n[nH]c2ncc(C(=O)N3CCC[C@@H]3c3ccc(F)cc3)cc12 [compound 44, [(R)-2-(4-Fluoro-phenyl)-pyrrolidin-1-yl]-(3-methyl-1H-pyrazolo[3,4-b]pyridin-5-yl)-methanone] | 0.1 to 1 |
| Cc1n[nH]c2ncc(C(=O)N3CCC[C@@H]3c3cccc(Cl)c3)cc12 [compound 45, [(r)-2-(3-Chloro-phenyl)-pyrrolidin-1-yl]-(3-methyl-1H-pyrazolo[3,4-b]pyridin-5-yl)-methanone] | 0.1 to 1 |
| Cc1n[nH]c2ncc(C(=O)N3CCC[C@H]3c3cccc(Cl)c3)cc12 [compound 46, [(S)-2-(3-Chloro-phenyl)-pyrrolidin-1-yl]-(3-methyl-1H-pyrazolo[3,4-b]pyridin-5-yl)-methanone] | 0.01 to 0.1 |
| Cc1n[nH]c2ccc(C(=O)N3CCC[C@H]3c3ccc(Br)cc3)cc12 [compound 49, [(S)-2-(4-Bromo-phenyl)-pyrrolidin-1-yl]-(3-methyl-1H-indazol-5-yl)-methanone] | < 0.01 |
| Cc1n[nH]c2ccc(C(=O)N3CCC[C@@H]3c3ccc(Br)cc3)cc12 [compound 50, [(R)-2-(4-Bromo-phenyl)-pyrrolidin-1-yl]-(3-methyl-1H-indazol-5-yl)-methanone] | 0.1 to 1 |

| SMILES | IC50 [µM] |
| --- | --- |
| Cc1n[nH]c2ccc(C(=O)N3CCC[C@@H]3c3ccc(Br)cc3)nc12 [compound 53, [(R)-2-(4-Bromo-phenyl)-pyrrolidin-1-yl]-(3-methyl-1H-pyrazolo[4,3-b]pyridin-5-yl)-methanone] | 0.1 to 1 |
| Cc1n[nH]c2ccc(C(=O)N3CCC[C@H]3c3ccc(Br)cc3)nc12 [compound 54, [(S)-2-(4-Bromo-phenyl)-pyrrolidin-1-yl]-(3-methyl-1H-pyrazolo[4,3-b]pyridin-5-yl)-methanone] | < 0.01 |
| Cc1n[nH]c2ncc(C(=O)N3CCC3c3ccc(Cl)cc3)cc12 (centres unmarked) [compound 55, [2-(4-Chloro-phenyl)-azetidin-1-yl]-(3-methyl-1H-pyrazolo[3,4-b]pyridin-5-yl)-methanone] | 0.01 to 0.1 |
| Cc1n[nH]c2ncc(C(=O)N3CC[C@H]3c3ccc(F)cc3)cc12 [compound 56, [(S)-2-(4-Fluoro-phenyl)-azetidin-1-yl]-(3-methyl-1H-pyrazolo[3,4-b]pyridin-5-yl)-methanone] | 0.01 to 0.1 |
| Cc1n[nH]c2ncc(C(=O)N3CCCCCC3c3ccc(Cl)cc3)cc12 (centres unmarked) [compound 57, [2-(4-Chloro-phenyl)-azepan-1-yl]-(3-methyl-1H-pyrazolo[3,4-b]pyridin-5-yl)-methanone] | 0.1 to 1 |
| Cc1n[nH]c2ncc(C(=O)N3CCCCCC3c3cccc(F)c3)cc12 (centres unmarked) [compound 58, [2-(3-Fluoro-phenyl)-azepan-1-yl]-(3-methyl-1H-pyrazolo[3,4-b]pyridin-5-yl)-methanone] | 0.01 to 0.1 |
| Cc1n[nH]c2ncc(C(=O)N3CCCCC(c4ccc(Cl)cc4)C3)cc12 (centres unmarked) [compound 59, [3-(4-Chloro-phenyl)-azepan-1-yl]-(3-methyl-1H-pyrazolo[3,4-b]pyridin-5-yl)-methanone] | 0.01 to 0.1 |
| Cc1ccc(C2CCCN2C(=O)c2cnc3[nH]nc(C)c3c2)cc1 (centres unmarked) [compound 62, (3-Methyl-1H-pyrazolo[3,4-b]pyridin-5-yl)-(2-p-tolyl-pyrrolidin-1-yl)-methanone] | < 0.01 |
| Cc1n[nH]c2ncc(C(=O)N3CCCC3c3ccc(C(F)(F)F)cc3)cc12 (centres unmarked) [compound 63, (3-Methyl-1H-pyrazolo[3,4-b]pyridin-5-yl)-[2-(4-trifluoromethyl-phenyl)-pyrrolidin-1-yl]-methanone] | < 0.01 |
| Cc1n[nH]c2ncc(C(=O)N3CCCC3c3ccccc3OCC(F)(F)F)cc12 (centres unmarked) [compound 65, (3-Methyl-1H-pyrazolo[3,4-b]pyridin-5-yl)-{2-[2-(2,2,2-trifluoro-ethoxy)-phenyl]-pyrrolidin-1-yl}-methanone] | 0.1 to 1 |
| Cc1n[nH]c2ncc(C(=O)N3CCCC(c4ccccc4)C3)cc12 (centres unmarked) [compound 66, (3-Methyl-1H-pyrazolo[3,4-b]pyridin-5-yl)-(3-phenyl-piperidin-1-yl)-methanone] | 0.1 to 1 |
| Cc1n[nH]c2ncc(C(=O)N3CCCC(c4ccc(Cl)cc4)C3)cc12 (centres unmarked) [compound 67, [3-(4-Chloro-phenyl)-piperidin-1-yl]-(3-methyl-1H-pyrazolo[3,4-b]pyridin-5-yl)-methanone] | 0.01 to 0.1 |
| Cc1n[nH]c2ncc(C(=O)N3CCC(c4ccc(Cl)cc4)C3)cc12 (centres unmarked) [compound 68, [3-(4-Chloro-phenyl)-pyrrolidin-1-yl]-(3-methyl-1H-pyrazolo[3,4-b]pyridin-5-yl)-methanone] | < 0.01 |
| Cc1n[nH]c2ncc(C(=O)N3CCCC3c3ccc(Cl)c(F)c3)cc12 (centres unmarked) [compound 69, [2-(4-Chloro-3-fluoro-phenyl)-pyrrolidin-1-yl]-(3-methyl-1H-pyrazolo[3,4-b]pyridin-5-yl)-methanone] | 0.01 to 0.1 |
| O=C(c1cnc2[nH]nc(C3CC3)c2c1)N1CCCC1c1ccc(Cl)cc1 (centres unmarked) [compound 70, [2-(4-Chloro-phenyl)-pyrrolidin-1-yl]-(3-cyclopropyl-1H-pyrazolo[3,4-b]pyridin-5-yl)-methanone] | 0.01 to 0.1 |
| O=C(c1cnc2[nH]nc(C(F)(F)F)c2c1)N1CCCC1c1ccc(Cl)cc1 (centres unmarked) [compound 71, [2-(4-Chloro-phenyl)-pyrrolidin-1-yl]-(3-trifluoromethyl-1H-pyrazolo[3,4-b]pyridin-5-yl)-methanone] | 0.01 to 0.1 |

same assay, conditions: IC50 [μM], CDK8 co-expressed with CycC; class symbols

| SMILES | IC50 [µM] |
| --- | --- |
| Cc1n[nH]c2ccc(C(=O)N3CCC[C@@H]3c3ccc(Cl)cc3)cc12 [compound 47, [(R)-2-(4-Chloro-phenyl)-pyrrolidin-1-yl]-(3-methyl-1H-indazol-5-yl)-methanone] | 0.1 to 1 |
| Cc1n[nH]c2ccc(C(=O)N3CCC[C@H]3c3ccc(Cl)cc3)cc12 [compound 48, [(S)-2-(4-Chloro-phenyl)-pyrrolidin-1-yl]-(3-methyl-1H-indazol-5-yl)-methanone] | < 0.01 |
| Cc1n[nH]c2ccc(C(=O)N3CCC[C@H]3c3ccc(Cl)cc3)nc12 [compound 52, [(S)-2-(4-Chloro-phenyl)-pyrrolidin-1-yl]-(3-methyl-1H-pyrazolo[4,3-b]pyridin-5-yl)-methanone] | < 0.01 |
| Nc1n[nH]c2ccc(C(=O)N3CCCC3c3ccc(Br)cc3)cc12 (centres unmarked) [compound 74, (3-Amino-1H-indazol-5-yl)-[2-(4-bromo-phenyl)-pyrrolidin-1-yl]-methanone] | < 0.01 |
| Nc1n[nH]c2ccc(C(=O)N3CCC[C@H]3c3ccc(Br)cc3)cc12 [compound 76, (3-Amino-1H-indazol-5-yl)-[(S)-2-(4-bromo-phenyl)-pyrrolidin-1-yl]-methanone] | < 0.01 |
| Nc1n[nH]c2ccc(C(=O)N3CCC[C@@H]3c3ccc(Br)cc3)cc12 [compound 77, (3-Amino-1H-indazol-5-yl)-[(R)-2-(4-bromo-phenyl)-pyrrolidin-1-yl]-methanone] | 0.1 to 1 |
